Assay [1] concerns the target T1, histamine H2 receptor in atria (Cavia porcellus, UniProt P47747).
T1 construct: right atrium was isolated; from tissue; host or cells: isolated right atrium of male Hartley guinea pig
The assay is described as follows: Histamine H2 receptor inhibition effect by isolated guinea pig right atrium preparation (negative chronotropic effect). It counts as cell-based, Male Hartley Guinea Pig. The note with it: 5×10^-6 mol sample 3 minutes prior to histamine, mean of five; for Kb: read-out: inhibitory effect of histamine H2 receptor in atria (pA2 value) (converted). The method, then:
(B) Measurement of Histamine H2 Receptor Inhibition Effect by Isolated Guinea Pig Right Atrium Preparation
Male Hartley Guinea Pig weighing around 400 g was sacrified by decapitation, and right atrium was isolated. The right atrium was suspended in an organ bath (50 ml) containing modified Ringer solution. Under application of a tensile load of 1 g, the heart rate was recorded by means of a polygraph. Histamine was applied cumulatively from 1×10^-7 mol to 3×10^-4 mol and a cumulative dosage response curve was drawn. Then, 5×10^-6 mol of the sample was administered 3 minutes prios to histamine application. The negative logarithmic value (pA2) of the specimen molarity required for shifting the curve to the right to double concentration was calculated.

Assay [2] has as its system acid secretion in pylorus-ligated rats. Nature of the assay: Anti-secretory effect (histamine-stimulated gastric acid secretion) in pylorus-ligated rat. It counts as in vivo, male wistar rats. The note with it: 30 min before histamine 3 mg/kg s.c., ** at 1% vs control; for inhibition in vivo at 2 mg/kg: Rattus norvegicus, sc, 3 h, 2 mg/kg s.c., n=5, * significant at 5%, read-out: inhibitory effect of acid secretion (%) at 2 mg/kg s.c. The method, then:
(A) Anti-secretory Effect in Pylorus-ligated Rat
After 24 hr fasting, male wistar rats weighing about 160 g were anesthetized by intraperitoreal injection of urethans 1.2 g/kg. Then, after ligating the pylorus and the esophagus, the proventriculus was incised and a double polyethylene cannula was inserted. The gastric wall was washed out with 5 ml of physiological saline every 30 minutes and the amount of acid contained in the saline after washing was measured by titration. After measuring the basal acid secretion of the pylorus ligated rats three times, the compounds of the invention, 2 mg/kg, were administered subcutaneously and, 30 minutes thereafter, histamine 3 mg/kg, was administered also subcutaneously. Then, the amounts of acid secretion were measured for 3 hours. […] Then, an inhibition rate was calculated in accordance with the following formula, in relation to the increment values measured for the control group. [formula]
One group included five examples.

This note sets out measurements from patent US4550118A, “Heterocyclic compounds” (Ikeda Mohando Co., Ltd., priority 1982, dated 1985).

T1 sequence (P47747 whole entry): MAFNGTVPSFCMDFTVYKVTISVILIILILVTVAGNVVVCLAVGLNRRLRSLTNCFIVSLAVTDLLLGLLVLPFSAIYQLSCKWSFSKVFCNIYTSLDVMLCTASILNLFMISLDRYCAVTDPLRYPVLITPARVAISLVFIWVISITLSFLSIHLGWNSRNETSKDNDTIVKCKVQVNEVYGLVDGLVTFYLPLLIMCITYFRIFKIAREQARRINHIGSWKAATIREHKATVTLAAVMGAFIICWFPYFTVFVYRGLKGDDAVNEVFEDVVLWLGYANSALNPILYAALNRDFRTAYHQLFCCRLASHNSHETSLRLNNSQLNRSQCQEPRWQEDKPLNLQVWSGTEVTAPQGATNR

As to “1-methyl-3-pyridylideneimino-5-[2-<5-(2-dimethylaminomethylbenzimidazolyl)methylthio>ethyl]-1H-1,2,4-triazole-5-amine [Example 100]”, the “inhibitory effect of histamine H2 receptor in atria (pA2 value)” value in assay [1] was determined as 5.75. In assay [2] (n=5, * significant at 5%), the “inhibitory effect of acid secretion (%) at 2 mg/kg s.c.” value was found to be 72%.

Consider `O=c1ccnc(NCCCOc2ccc3[nH]c(CN4CCCCC4)nc3c2)[nH]1` [Example 59, 2-[3-<5-(2-(1-piperidinomethyl)benzimidazolyl)oxy>propylamino]-4-pyrimidone], for which, in assay [1], the Kb was 0.891 µM. Also, the inhibition in vivo at 2 mg/kg in assay [2] was 74%.

As for `CN(C)Cc1nc2cc(CSCCNC(N)=NC#N)ccc2[nH]1` [Example 34, N-cyano-N'-[2-<5-(2-dimethylaminomethylbenzimidazolyl)methylthio>ethyl]guanidine], the Kb in assay [1] is 0.832 µM. In addition, in assay [2], the inhibition in vivo at 2 mg/kg was 52%.

With `C#CCNc1n[s+]([O-])nc1NCCSCc1ccc2[nH]c(CN(C)C)nc2c1` (centres unmarked) [Example 109, 3-[2-<5-(2-dimethylaminomethylbenzimidazolyl)methylthio>ethyl]amino-4-(2-propinylamino)-1,2,5-thiadiazole-1-oxide], the Kb in assay [1] is 0.759 µM. The inhibition in vivo at 2 mg/kg in assay [2] is 74%.

For the molecule `CN(C)Cc1nc2cc(CSCCC(N)=NS(N)(=O)=O)ccc2[nH]1` [Example 121, N-sulfamoyl-3-[5-(2-dimethylaminomethylbenzimidazolyl)methylthio]propionamidine], the Kb in assay [1] was 0.562 µM. Besides, the inhibition in vivo at 2 mg/kg in assay [2] was determined as 76%.

Regarding `O=c1[nH]c(NCCCOc2ccc3[nH]c(CN4CCCC4)nc3c2)ncc1Cc1ccc2c(c1)OCO2` [Example 63, 5-[5-(1,3-benzodioxolyl)methyl]-2-[3-<5-(2-(1-pyrrolidinomethyl)benzimidazolyl)oxy>propylamino]-4-pyrimidone], the Kb in assay [1] is 4.07 µM. In addition, the inhibition in vivo at 2 mg/kg in assay [2] is 78%.

For the molecule `CN(C)Cc1cnc(NCCCOc2ccc3[nH]c(CN4CCCCC4)nc3c2)[nH]c1=O` [Example 61, 5-dimethylaminomethyl-2-[3-<5-(2-(1-piperidinomethyl)benzimidazolyl)oxy>propylamino]-4-pyrimidone], in assay [1], the Kb is 3.09 µM. Also, in assay [2], the inhibition in vivo at 2 mg/kg was 64%.

Regarding `Nc1n[s+]([O-])nc1NCCCOc1ccc2[nH]c(CN3CCCCC3)nc2c1` (centres unmarked) [Example 101], the Kb in assay [1] is 2.95 µM. Moreover, the inhibition in vivo at 2 mg/kg in assay [2] was found to be 97%.

Take `CN(C)Cc1nc2cc(OCCCNc3ncc(Cc4ccc5c(c4)OCO5)c(=O)[nH]3)ccc2[nH]1` [Example 62, 5-[5-(1,3-benzodioxolyl)methyl]-2-[3-<5-(2-dimethylaminomethylbenzimidazolyl)oxy>propylamino]-4-pyrimidone]: in assay [1], the Kb is 0.631 µM. Besides, in assay [2], the inhibition in vivo at 2 mg/kg was 84%.

For the molecule `CNC(=NC#N)NCCCSCc1ccc2[nH]c(CN(C)C)nc2c1` [Example 37, N-cyano-N'-methyl-N"-[3-<5-(2-dimethylaminomethylbenzimidazolyl)methylthio>propyl]guanidine], the Kb in assay [1] was 1.66 µM. The inhibition in vivo at 2 mg/kg in assay [2] stood at 38%.

Take `CN(C)Cc1nc2cc(CSCCNc3ncc(Cc4cccnc4)c(=O)[nH]3)ccc2[nH]1` [Example 76, 2-[2-<5-(2-dimethylaminomethylbenzimidazolyl)methylthio>ethylamino]-5-(3-pyridylmethyl)-4-pyrimidone]: the Kb in assay [1] is 1.23 µM. The inhibition in vivo at 2 mg/kg in assay [2] turned out to be 102%.

On to `O=c1[nH]c(NCCCOc2ccc3[nH]c(CN4CCCCC4)nc3c2)nnc1Cc1cccnc1` [Example 85, 3-{3-[5-<2-(1-piperidinomethyl)benzimidazolyl>oxy]propylamino}-6-(3-pyridylmethyl)-1,2,4-triazine-5-one], for which, in assay [1], the Kb is 1.95 µM. The inhibition in vivo at 2 mg/kg in assay [2] amounted to 46%.

For the molecule `CNC(=C[N+](=O)[O-])NCCCOc1ccc2[nH]c(CN3CCCC3)nc2c1` [Example 28, 1-nitro-2-methylamino-2-[3-<5-(2-(1-pyrrolidinomethyl)benzimidazolyl)oxy>propylamino]ethylene], in assay [1], the Kb is 2.45 µM. Moreover, the inhibition in vivo at 2 mg/kg in assay [2] was determined as 64%.

With `CNC(=NC#N)NCCCCOc1ccc2[nH]c(CN(C)C)nc2c1` [Example 2, N-cyano-N'-methyl-N"-[4-<5-(2-dimethylaminomethylbenzimidazolyl)oxy>butyl]guanidine], the Kb in assay [1] was 1.51 µM. In addition, the inhibition in vivo at 2 mg/kg in assay [2] was found to be 75%.

As for `CCNc1n[s+]([O-])nc1NCCCSc1ccc2[nH]c(NC(=N)N)nc2c1` (centres unmarked) [Example 113, 3-N-[3-<5-(2-guanidinobenzimidazolyl)thio>propyl]amino-4-ethylamino-1,2,5-thiadiazole-1-oxide], in assay [1], the Kb was 8.51 µM. Further, the inhibition in vivo at 2 mg/kg in assay [2] came to 63%.

Turning to `C#CCNC1=NS(=O)(=O)N=C1NCCSCc1ccc2[nH]c(CN(C)C)nc2c1` [Example 110, 3-[2-<5-(2-dimethylaminomethylbenzimidazolyl)methylthio>ethyl]amino-4-(2-propynylamino)-1,2,5-thiadoazole-1,1-dioxide], in assay [1], the Kb is 1.58 µM. The inhibition in vivo at 2 mg/kg in assay [2] came out at 68%.

With `CN(C)Cc1nc2cc(OCCCNc3nc(N)nn3C)ccc2[nH]1` [Example 91, 1-methyl-5-[3-<5-(2-dimethylaminomethylbenzimidazolyl)oxy>propyl]-1H-1,2,4-triazole-3,5-diamine], the Kb in assay [1] is 6.46 µM. The inhibition in vivo at 2 mg/kg in assay [2] came out at 81%.

Consider `O=c1[nH]c(NCCCOc2ccc3[nH]c(CN4CCCCC4)nc3c2)ncc1Cc1cccnc1` [Example 68, 2-{3-[5-<2-(1-piperidinomethyl)benzimidazolyl>oxy]propylamino}-5-(3-pyridylmethyl)-4-pyrimidone], for which, in assay [1], the Kb is 9.55 µM. Besides, the inhibition in vivo at 2 mg/kg in assay [2] is 90%.

Turning to `CN(C)Cc1nc2cc(CSCCNc3nccc(=O)[nH]3)ccc2[nH]1` [Example 72, 2-[2-<5-(2-dimethyaminomethylbenzimidazolyl)methylthio>ethylamino]-4-pyrimidone], the Kb in assay [1] was 0.851 µM. In addition, the inhibition in vivo at 2 mg/kg in assay [2] was determined as 53%.

Regarding `CNc1n[s+]([O-])nc1NCCSCc1ccc2[nH]c(CN(C)C)nc2c1` (centres unmarked) [Example 106, 3-[2-<5-(2-dimethylaminomethylbenzimidazolyl)methylthio>ethyl]amino-4-methylamino-1,2,5-thiadiazole-1-oxide], the Kb in assay [1] is 0.537 µM. Further, the inhibition in vivo at 2 mg/kg in assay [2] worked out at 89%.

In the case of `CN(C)Cc1nc2cc(OCCCNc3ncc(CN(C)C)c(=O)[nH]3)ccc2[nH]1` [Example 60, 5-dimethylaminomethyl-[3-<5-(2-dimethylaminomethylbenzimidazolyl)oxy>propylamino]-4-pyrimidone], the Kb in assay [1] was 3.55 µM. In assay [2], the inhibition in vivo at 2 mg/kg was 56%.

For `O=c1[nH]c(NCCCOc2ccc3[nH]c(CN4CCCC4)nc3c2)ncc1Cc1cccnc1` [Example 67, 2-{3-[5-<2-(1-pyrrolidinomethyl)benzimidazolyl>oxy]propylamino}-5-(3-pyridylmethyl)-4-pyrimidone], the Kb in assay [1] is 4.68 µM. Moreover, the inhibition in vivo at 2 mg/kg in assay [2] was 93%.

For the molecule `CN(C)Cc1nc2cc(OCCCCNc3nc(N)nn3C)ccc2[nH]1` [Example 92, 1-methyl-5-[4-<5-(2-dimethylaminomethylbenzimidazolyl)oxy>butyl]-1H-1,2,4-triazole-3,5-diamine], the Kb in assay [1] was 5.5 µM. Also, the inhibition in vivo at 2 mg/kg in assay [2] was found to be 92%.

Regarding `Nc1n[s+]([O-])nc1NCCSCc1ccc2[nH]c(CN3CCCCC3)nc2c1` (centres unmarked) [Example 105, 3-{2-[5-<2-(1-piperidinomethyl)benzimidazolyl>methylthio]ethyl}amino-4-amino-1,2,5-thiadiazole-1-oxide], the “inhibitory effect of histamine H2 receptor in atria (pA2 value)” value in assay [1] was found to be 6.08. Moreover, the inhibition in vivo at 2 mg/kg in assay [2] is 92%.

Consider `C#CCNC(=C[N+](=O)[O-])NCCSCc1ccc2[nH]c(CN(C)C)nc2c1` [Example 44, 1-nitro-2-propargylamino-2-[2-<5-(2-dimethylaminomethylbenzimidazolyl)methylthio>ethylamino]ethylene], for which the Kb in assay [1] is 0.631 µM. The inhibition in vivo at 2 mg/kg in assay [2] was found to be 57%.

Consider `CN(C)Cc1nc2cc(CSCCCC(N)=NS(N)(=O)=O)ccc2[nH]1` [Example 122, N-sulfamoyl-4-[5-(2-dimethylaminomethylbenzimidazolyl)methylthio]butyroamidine], for which the Kb in assay [1] was 2.45 µM. Further, the inhibition in vivo at 2 mg/kg in assay [2] amounted to 32%.

As for `CN(C)Cc1nc2cc(CSCCNc3nc(N)n[nH]3)ccc2[nH]1` [Example 96, 5-[2-<5-(2-dimethylaminomethylbenzimidazolyl)methylthio>ethyl]-1H-1,2,4-triazole-3,5-diamine], in assay [1], the Kb is 0.933 µM.
